SMILES strings stand for the structures.

The experiment addresses T1, KRAS G12C 1-169, his-tagged protein, GDP-loaded (Homo sapiens, UniProt P01116, G12C).
T1 construct: KRAS G12C 1-169, his-tagged protein, GDP-loaded; His tag
The experiment in a line: Biochemical assay: covalent modification of KRAS G12C, analysed by mass spectrometry (RapidFire/TOF or Q-Exactive). Also: time not given here. The experiment is classed as binding. The settings on record: Modification activity, modification percentage from MS peak intensities. Put shortly:
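GDP-loaded His-tagged KRAS G12C 1-169 (2 μM or 0.5 μM in 20 mM Hepes, 150 mM NaCl, 1 mM MgCl2) reacted with compound at 32 μM or 8 μM final (2% DMSO) for a set time, then quenched with formic acid. Percent covalent modification from deconvoluted intact-protein MS peak intensities (RapidFire/TOF or LC-Q Exactive).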
In the case of `C=CC(=O)N1CC2(CCN(c3nc(-c4c(C)ccc5[nH]ncc45)nc(N4CCOCC4)n3)C2)C1` [Compound I-189, 1-(6-(4-(5-methyl-1H-indazol-4-yl)-6-morpholino-1,3,5-triazin-2-yl)-2,6-diazaspiro[3.4]octan-2-yl)prop-2-en-1-one], the Binding % entry is “+ (+ indicates binding activity greater than 0% and up to 50%)”.
Regarding `C=CC(=O)N1CC2(CCN(c3nc(N4CCOCC4)nc(-c4c(C)ccc5[nH]ncc45)c3C#CC3CC3)C2)C1` [Compound I-190, 1-(6-(5-(cyclopropylethynyl)-6-(5-methyl-1H-indazol-4-yl)-2-morpholinopyrimidin-4-yl)-2,6-diazaspiro[3.4]octan-2-yl)prop-2-en-1-one], the Binding % entry was “+ (+ indicates binding activity greater than 0% and up to 50%)”.
Next, `C=CC(=O)N1CC2(CCN(c3nc(N4CCC(N5CCN(C)[C@@H](C)C5)CC4)nc(-c4c(C)ccc5[nH]ncc45)c3C#N)C2)C1` [Compound I-191, 4-(2-acryloyl-2,6-diazaspiro[3.4]octan-6-yl)-2-(4-((S)-3,4-dimethylpiperazin-1-yl)piperidin-1-yl)-6-(5-methyl-1H-indazol-4-yl)pyrimidine-5-carbonitrile]: “+++ (+++ indicates binding activity greater than 85%)”; `C=C(C)C(=O)N1CC2(CCN(c3nc(N4CCOCC4)nc(-c4c(C)ccc5[nH]ncc45)c3C#N)C2)C1` [Compound I-192, 4-(2-methacryloyl-2,6-diazaspiro[3.4]octan-6-yl)-6-(5-methyl-1H-indazol-4-yl)-2-morpholinopyrimidine-5-carbonitrile]: “+ (+ indicates binding activity greater than 0% and up to 50%)”; `C=CC(=O)N1CC2(CCN(c3nc(N4CCC(N5CCN(C)[C@@H](C)C5)CC4)nc(-c4c(C)ccc5cnn(C)c45)c3C#N)C2)C1` [Compound I-193, 4-(2-acryloyl-2,6-diazaspiro[3.4]octan-6-yl)-6-(1,6-dimethyl-1H-indazol-7-yl)-2-(4-((S)-3,4-dimethylpiperazin-1-yl)piperidin-1-yl)pyrimidine-5-carbonitrile]: “+++ (+++ indicates binding activity greater than 85%)”.
Regarding `C=CC(=O)N1CC2(CCN(c3nc(N4CCC(N5CCN(C)C6(CC6)C5)CC4)nc(-c4c(C)ccc5[nH]ncc45)c3C#N)C2)C1` [Compound I-194, 4-(2-acryloyl-2,6-diazaspiro[3.4]octan-6-yl)-6-(5-methyl-1H-indazol-4-yl)-2-(4-(4-methyl-4,7-diazaspiro[2.5]octan-7-yl)piperidin-1-yl)pyrimidine-5-carbonitrile], the Binding % entry is on record as “+++ (+++ indicates binding activity greater than 85%)”.
In the case of `C=CC(=O)N1CC2(CCN(c3nc(C4CCOCC4)nc(-c4c(C)ccc5[nH]ncc45)c3C#N)C2)C1` [Compound I-196, 4-(2-acryloyl-2,6-diazaspiro[3.4]octan-6-yl)-6-(5-methyl-1H-indazol-4-yl)-2-(tetrahydro-2H-pyran-4-yl)pyrimidine-5-carbonitrile], the Binding % result is “++ (++ indicates binding activity from 50 to 85%)”.
Under `C=CC(=O)N1CC2(CCN(c3nc(N4CCC(N5CCN(C)C6(CC6)C5)CC4)nc(-c4c(C)ccc5cnn(C)c45)c3C#N)C2)C1` [Compound I-197, 4-(2-acryloyl-2,6-diazaspiro[3.4]octan-6-yl)-6-(1,6-dimethyl-1H-indazol-7-yl)-2-(4-(4-methyl-4,7-diazaspiro[2.5]octan-7-yl)piperidin-1-yl)pyrimidine-5-carbonitrile] stands “+++ (+++ indicates binding activity greater than 85%)”; under `C=CC(=O)N1CC2(CCN(c3nc(N4CCC(N5CCN(C)[C@H](C)C5)CC4)nc(-c4c(C)ccc5cnn(C)c45)c3C#N)C2)C1` [Compound I-198, 4-(2-acryloyl-2,6-diazaspiro[3.4]octan-6-yl)-6-(1,6-dimethyl-1H-indazol-7-yl)-2-(4-((R)-3,4-dimethylpiperazin-1-yl)piperidin-1-yl)pyrimidine-5-carbonitrile], “+++ (+++ indicates binding activity greater than 85%)”.

The values are drawn from patent US12134620B2 (ARAXES PHARMA LLC, priority 2018, dated 2024).
